Values quoted from earlier work as cited in US20040143023A1, “Materials and methods for synthesizing stilbenes” (priority 2000, published 2004).

How the values were obtained:
[1] = in water and saline
[2] = test system: P388 murine leukaemia cell line; details: cell line not restated for the trans isomer

Compound | solubility [1] | toxicity toward tumour vasculature (tumour vasculature) | concentration range in which cell growth is inhibited [2]
COc1ccc(/C=C\c2cc(OC)c(OC)c(OC)c2)cc1O [cis-combretastatin A-4, Z-1-(3′-Hydroxy-4′-methoxyphenyl)-2-(3″,4″,5″-trimethoxyphenyl)ethene] | low solubility | potent and selective toxicity | 
COc1ccc(/C=C/c2cc(OC)c(OC)c(OC)c2)cc1O [trans-combretastatin A-4, E-1-(3′-Hydroxy-4′-methoxy)-2-(Trimethoxyphenyl)-2-(3″,4″,5″-trimethoxyphenyl)ethene] |  |  | millimblar range
